According to the NIST ThermoML archive (doi:10.1021/je101232g):

Details: Liquid

CCCCCCCCCCCCCC[P+](CCCCCC)(CCCCCC)CCCCCC.O=S(=O)([N-]S(=O)(=O)C(F)(F)F)C(F)(F)F
mass density [kg/m3]
Details | 283.15 K | 293.15 K | 303.15 K | 313.15 K | 323.15 K | 333.15 K
100 kPa | 1077.4 | 1070 | 1062.7 | 1055.4 | 1048 | 1040.8
1000 kPa | 1077.9 | 1070.5 | 1063.3 | 1056 | 1048.7 | 1041.5
2000 kPa | 1078.4 | 1071.2 | 1063.9 | 1056.7 | 1049.3 | 1042.2
3000 kPa | 1079 | 1071.8 | 1064.5 | 1057.3 | 1050.1 | 1042.9
4000 kPa | 1079.6 | 1072.3 | 1065.2 | 1057.9 | 1050.7 | 1043.6
5000 kPa | 1080.2 | 1072.9 | 1065.8 | 1058.6 | 1051.4 | 1044.4
10000 kPa | 1083 | 1075.9 | 1068.8 | 1061.7 | 1054.7 | 1047.8
15000 kPa | 1085.6 | 1078.6 | 1071.8 | 1064.9 | 1057.9 | 1051.2
20000 kPa | 1088.3 | 1081.4 | 1074.7 | 1067.8 | 1061 | 1054.3
25000 kPa | 1090.8 | 1084 | 1077.4 | 1070.7 | 1064 | 1057.4
30000 kPa | 1093.3 | 1086.6 | 1080.1 | 1073.5 | 1066.9 | 1060.4
35000 kPa | 1095.6 | 1089.1 | 1082.7 | 1076.2 | 1069.8 | 1063.3
40000 kPa | 1097.9 | 1091.5 | 1085.1 | 1078.8 | 1072.4 | 1066.2
45000 kPa | 1100.2 | 1093.9 | 1087.7 | 1081.3 | 1075.1 | 1068.9

CCCCCCCCCCCCCC[P+](CCCCCC)(CCCCCC)CCCCCC.N#C[N-]C#N [tetradecyl(trihexyl)phosphonium dicyanamide]
mass density [kg/m3]
Details | 283.15 K | 293.15 K | 303.15 K | 313.15 K | 323.15 K | 333.15 K
100 kPa | 907.5 | 901.7 | 895.9 | 890.2 | 884.3 | 878.6
1000 kPa | 908 | 902.1 | 896.4 | 890.6 | 884.8 | 879.2
2000 kPa | 908.4 | 902.6 | 896.9 | 891.2 | 885.4 | 879.7
3000 kPa | 908.9 | 903.1 | 897.4 | 891.6 | 885.9 | 880.2
4000 kPa | 909.3 | 903.5 | 897.9 | 892.1 | 886.5 | 880.8
5000 kPa | 909.8 | 904 | 898.3 | 892.7 | 887 | 881.3
10000 kPa | 912.1 | 906.3 | 900.7 | 895.1 | 889.5 | 884
15000 kPa | 914.3 | 908.5 | 903 | 897.5 | 892 | 886.6
20000 kPa | 916.2 | 910.7 | 905.3 | 899.9 | 894.4 | 889.1
25000 kPa | 918.3 | 912.8 | 907.5 | 902.1 | 896.7 | 891.4
30000 kPa | 920.3 | 914.9 | 909.6 | 904.3 | 899 | 893.9
35000 kPa | 922.2 | 916.9 | 911.6 | 906.5 | 901.4 | 896.2
40000 kPa | 924.2 | 918.9 | 913.7 | 908.5 | 903.4 | 898.3
45000 kPa | 926.1 | 920.9 | 915.7 | 910.7 | 905.6 | 900.5

CCCCCCCCCCCCCC[P+](CCCCCC)(CCCCCC)CCCCCC.[Br-] [tetradecyltrihexylphosphonium bromide]
mass density [kg/m3]
Details | 283.15 K | 293.15 K | 303.15 K | 313.15 K | 323.15 K | 333.15 K
100 kPa | 962.7 | 956.5 | 950.3 | 944.1 | 937.8 | 931.7
1000 kPa | 963.2 | 957.1 | 950.9 | 944.6 | 938.4 | 932.3
2000 kPa | 963.7 | 957.6 | 951.4 | 945.3 | 939 | 933
3000 kPa | 964.2 | 958.1 | 952 | 945.8 | 939.7 | 933.6
4000 kPa | 964.8 | 958.7 | 952.6 | 946.4 | 940.3 | 934.2
5000 kPa | 965.3 | 959.2 | 953.1 | 947 | 941 | 934.9
10000 kPa | 967.9 | 961.9 | 955.9 | 949.8 | 943.9 | 938
15000 kPa | 970.3 | 964.5 | 958.6 | 952.7 | 946.8 | 941
20000 kPa | 972.8 | 967 | 961.2 | 955.4 | 949.7 | 943.9
25000 kPa | 975.3 | 969.3 | 963.8 | 958 | 952.4 | 946.8
30000 kPa | 977.6 | 971.8 | 966.3 | 960.6 | 955.1 | 949.6
35000 kPa | 979.8 | 974.2 | 968.7 | 963.2 | 957.7 | 952.3
40000 kPa | 982 | 976.5 | 971 | 965.5 | 960.2 | 954.9
45000 kPa | 984.2 | 978.8 | 973.4 | 967.9 | 962.7 | 957.3

CCCCCCCCCCCCCC[P+](CCCCCC)(CCCCCC)CCCCCC.[Cl-] [trihexyl(tetradecyl)phosphonium chloride]
mass density [kg/m3]
Details | 283.15 K | 293.15 K | 303.15 K | 313.15 K | 323.15 K | 333.15 K
100 kPa | 898.4 | 892.4 | 886.5 | 880.6 | 874.8 | 868.9
1000 kPa | 898.8 | 892.9 | 887 | 881.1 | 875.3 | 869.4
2000 kPa | 899.3 | 893.4 | 887.5 | 881.7 | 875.8 | 870
3000 kPa | 899.8 | 893.9 | 888 | 882.2 | 876.4 | 870.6
4000 kPa | 900.3 | 894.4 | 888.5 | 882.7 | 876.9 | 871.1
5000 kPa | 900.7 | 894.9 | 889.1 | 883.3 | 877.6 | 871.8
10000 kPa | 903.1 | 897.3 | 891.5 | 885.9 | 880.2 | 874.5
15000 kPa | 905.3 | 899.6 | 894 | 888.4 | 882.8 | 877.3
20000 kPa | 907.5 | 901.8 | 896.3 | 890.8 | 885.3 | 879.9
25000 kPa | 909.6 | 904 | 898.6 | 893.2 | 887.8 | 882.5
30000 kPa | 911.7 | 906.3 | 900.8 | 895.5 | 890.1 | 884.9
35000 kPa | 913.7 | 908.3 | 903 | 897.7 | 892.6 | 887.3
40000 kPa | 915.7 | 910.3 | 905.1 | 899.9 | 894.8 | 889.6
45000 kPa | 917.6 | 912.4 | 907.2 | 902.1 | 897 | 892

CCCCCCCCCCCCCC[P+](CCCCCC)(CCCCCC)CCCCCC.CS(=O)(=O)[O-] [trihexyltetradecylphosphonium methanesulfonate]
mass density [kg/m3]
Details | 283.15 K | 293.15 K | 303.15 K | 313.15 K | 323.15 K | 333.15 K
100 kPa | 938 | 931.8 | 925.7 | 919.6 | 913.4 | 907.4
1000 kPa | 938.4 | 932.3 | 926.2 | 920.1 | 914 | 908.1
2000 kPa | 938.9 | 932.8 | 926.7 | 920.7 | 914.6 | 908.7
3000 kPa | 939.5 | 933.4 | 927.3 | 921.3 | 915.3 | 909.3
4000 kPa | 940.1 | 933.9 | 927.9 | 921.9 | 915.9 | 910
5000 kPa | 940.5 | 934.4 | 928.4 | 922.5 | 916.6 | 910.6
10000 kPa | 943.1 | 937.1 | 931.3 | 925.3 | 919.5 | 913.7
15000 kPa | 945.6 | 939.7 | 934 | 928.1 | 922.3 | 916.7
20000 kPa | 948 | 942.2 | 936.6 | 930.8 | 925.2 | 919.6
25000 kPa | 950.3 | 944.6 | 939 | 933.5 | 927.9 | 922.3
30000 kPa | 952.7 | 947.1 | 941.5 | 935.9 | 930.5 | 925
35000 kPa | 954.9 | 949.4 | 943.8 | 938.4 | 933.1 | 927.7
40000 kPa | 957.1 | 951.6 | 946.2 | 940.8 | 935.5 | 930.2
45000 kPa | 959.3 | 953.9 | 948.5 | 943.3 | 938.1 | 932.7
